From patent US20130035246A1, “Method and Apparatus for Determining a Mammal's Exposure to Chemical or Biological Agents” ([…], INC., priority 2011, published 2013)

System: peripheral blood mononuclear cell (PBMC) cultures
Assay: Cytokine expression in PBMC cultures challenged with mold cells or PHA (multiplex immunoassay)
Format: cell-based, human
Conditions: PBMC from healthy volunteers, 18 hours
Source text: PBMC were isolated from blood collected from patients and control subjects as previously described [Gillis B, Gavin I M, Arbieva Z, King S T, Jayaraman S, Prabhakar B S. Identification of human cell responses to benzene and benzene metabolites. Genomics 2007; 90: 324-333 and Gavin I M, Gillis B, Arbieva Z, Prabhakar B S. Identification of human cell responses to hexavalent chromium. Environ Mol Mutagen 2007; 48: 650-657.] and incorporated herein by reference. One milliliter of blood plasma was also collected from the blood samples and stored frozen at −80° C. […]
After overnight culture of the PMBC, one milliliter of supernatant was removed from each plate, centrifuged at 16,000 g at +4° C. for 10 minutes, and clear cell-free culture media were collected. Cytokine concentrations in culture supernatants, as well as in plasma, were measured by multiplex immunoassay based on Luminex xMAP™ bead array technology using a Bio-Plex 200 fluorescence bead reader (BioRad Laboratories, Hercules, Calif.). […]
Statistical analyses were performed with Microsoft Excel and Analyse-it software (Analyse-it Software Ltd., Leeds, UK). An increase of cytokine expression in immunologic challenges was evaluated using a Student's t-test. […] The statistical significance of the difference in responses to various immunologic challenges was evaluated by using a one-way ANOVA test with Tukey type I error correction. […]

phytohemagglutinin [PHA]
IL-2, IL-4 and IL-5 in culture supernatants: detected
